Target: ATP-dependent translocase ABCB1 (Homo sapiens, UniProt P08183)
Assay: TP_TRANSPORTER: ATP hydrolysis GENTEST
Type: functional

Chain of ATP-dependent translocase ABCB1 (P08183 whole entry): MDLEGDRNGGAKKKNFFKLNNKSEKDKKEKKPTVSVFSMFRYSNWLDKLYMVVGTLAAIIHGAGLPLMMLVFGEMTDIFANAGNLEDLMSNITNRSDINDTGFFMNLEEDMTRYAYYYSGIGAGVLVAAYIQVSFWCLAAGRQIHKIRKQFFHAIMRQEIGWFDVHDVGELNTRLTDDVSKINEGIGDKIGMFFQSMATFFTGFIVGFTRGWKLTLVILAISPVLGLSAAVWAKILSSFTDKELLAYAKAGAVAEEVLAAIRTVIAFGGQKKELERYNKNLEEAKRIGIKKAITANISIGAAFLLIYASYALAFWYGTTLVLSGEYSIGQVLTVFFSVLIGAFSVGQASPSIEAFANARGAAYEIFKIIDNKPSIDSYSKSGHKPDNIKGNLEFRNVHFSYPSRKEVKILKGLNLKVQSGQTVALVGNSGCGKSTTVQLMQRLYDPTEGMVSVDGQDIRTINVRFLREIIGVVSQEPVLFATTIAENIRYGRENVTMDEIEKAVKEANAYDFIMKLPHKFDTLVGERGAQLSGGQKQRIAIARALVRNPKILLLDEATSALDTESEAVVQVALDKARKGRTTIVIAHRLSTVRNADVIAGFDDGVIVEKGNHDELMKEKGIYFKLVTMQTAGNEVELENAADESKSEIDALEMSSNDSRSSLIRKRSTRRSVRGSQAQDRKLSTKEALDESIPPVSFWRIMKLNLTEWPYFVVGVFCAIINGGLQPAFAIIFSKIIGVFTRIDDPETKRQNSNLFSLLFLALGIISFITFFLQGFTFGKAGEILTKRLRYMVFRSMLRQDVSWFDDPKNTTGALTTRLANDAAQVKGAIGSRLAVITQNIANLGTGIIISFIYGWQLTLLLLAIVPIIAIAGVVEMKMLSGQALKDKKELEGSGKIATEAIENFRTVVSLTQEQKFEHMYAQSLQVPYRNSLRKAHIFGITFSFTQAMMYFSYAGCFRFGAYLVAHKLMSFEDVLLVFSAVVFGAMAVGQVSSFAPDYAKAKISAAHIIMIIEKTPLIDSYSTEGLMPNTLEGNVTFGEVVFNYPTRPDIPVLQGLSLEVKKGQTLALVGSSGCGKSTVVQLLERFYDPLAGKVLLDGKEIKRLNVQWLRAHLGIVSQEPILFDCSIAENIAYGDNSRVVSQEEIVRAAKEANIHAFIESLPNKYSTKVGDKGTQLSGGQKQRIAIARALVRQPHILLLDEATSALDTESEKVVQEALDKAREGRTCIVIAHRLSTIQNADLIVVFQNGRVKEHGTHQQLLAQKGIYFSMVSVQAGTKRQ

- Activity: substrate [+]
Substance: GARLIC
